Assay results reported in patent publication US20040096436A1, “Methods for inhibiting protein kinases in cancer cells” (priority 2002, published 2004).

Experiments:
activated PBL = experiment: α-tubulin polymerization assay in PBL activated with anti-CD3 and anti-CD28 antibodies; assay type: cell-based, human; details: PBL activated 24 hrs with anti-CD3 and anti-CD28, paclitaxel for one hour
Protocol: (§1) All primary cells were cultured in RPMI 1640 medium with 20% fetal bovine serum (regular medium) at a density of 2-5×10^6 cell/ml. In some cases, the PBL were stimulated for 24 hours with 1 μg/ml anti-CD3 and anti-CD28 antibodies (Alexis, San Diego, Calif.) prior to immunoblot analysis.
(§2) α-tubulin Polymerization Assay.
After a brief but vigorous vortex, the lysates were incubated at room temperature for 5 minutes, and then centrifuged at 16,000×g for 5 minutes to separate the soluble from polymerized α-tubulin. The supernatant and pellet fractions were resolved on 10-20% pre-cast tris-glycine gels (Novex, San Diego, Calif.) and then subjected to immune blotting with a specific anti-α-tubulin antibody.
The cytosolic (S) monomeric and particulate-bound (P) polymerized forms of α-tubulin were separated by centrifugation from drug-treated cells and assayed by immunoblotting.

CLL cells = experiment: α-tubulin polymerization assay in CLL cells; assay type: cell-based, human; details: paclitaxel
Protocol: The Institutional Review Board of the University of California, San Diego approved this study, and all patients gave informed written consent to participation. Subjects had CLL according to National Cancer Institute (NCI) criteria of any Rai stage. None of the patients were in active chemotherapeutic treatments. Flow cytometric analysis determined that all specimens contained more than 90% CD5+ CD19+ B cells.
Peripheral blood from CLL patients or normal donors was layered on top of Ficoll-Paque Plus (Pharmacia, NJ) and centrifuged at 1200×g for twenty minutes. The enriched peripheral blood mononuclear cells (PBL) were washed several times with Ca++, Mg++-free HBSS.
as §1, §2
For each data point, 2×10^6 of cells were incubated in 2ml of regular medium containing drugs for various periods of time. The cells were then washed twice at room temperature, and resuspended in 50 μl of α-tubulin extraction buffer (1 mM MgCl2, 2 m MEGTA, 0.5% NP-40, 20 mM Tris-HCl, pH=6.8) supplemented with 2 mM phenylmethysulfonyl fluoride, and a protease inhibitor cocktail (Sigma). […]

SMILES: CC(=O)O[C@H]1C(=O)[C@@]2(C)[C@H]([C@H](OC(=O)c3ccccc3)[C@]3(O)C[C@H](OC(=O)[C@H](O)[C@@H](NC(=O)c4ccccc4)c4ccccc4)C(C)=C1C3(C)C)[C@]1(OC(C)=O)CO[C@@H]1C[C@@H]2O [paclitaxel]
- α-tubulin in the particulate fraction after treatment (activated PBL): shift of α-tubulin to the particulate-bound fraction
- α-tubulin relocalization to the particulate fraction after treatment (CLL cells): nearly complete relocalization of α-tubulin to the particulate fraction
